Measured values from patent US10406264B2, “Peptide having titanium-binding ability” (NANO INTELLIGENT BIOMEDICAL ENGINEERING CORPORATION. CO. LTD, priority 2016, dated 2019).
Where a SMILES comes first, the peptide text is derived from it. Where no end group is shown, it is not given here. [ ]: non-standard residue; d: D form. Ahx = NCCCCCC(=O)O

Columns and labels:
[1] = binding assay using an avidin-biotin complex (binding affinity for titanium); details: biotin-labeled peptide 100 nM to 1 μM, 15 hours at room temperature, FIG. 1
Experimental: In order to examine the binding affinities of the peptides synthesized in Example 1 and Comparative Examples 1 and 2 for titanium, the peptides were labeled with biotin. Each of the peptides was biotinylated using EZ-Link Sulfo-NHS-Biotin (Pierce Biotechnology, USA) according to the manufacturer's instruction, and unbound byproducts were removed by ultrafiltration that is a membrane separation method based on a pressure difference. The molecular weights of the synthesized products were measured by mass spectrometry. The synthesized products were analyzed and purified by reverse phase liquid chromatography. For analysis, a C18 column having a diameter of 4.6 mm was used, and 0.1% TFA/H2O and 0.092% TFA/acetonitrile were flushed onto the column at a rate of 1 ml/min with a gradient of 0-60% for 30 minutes. The wavelength of the UV detector used was 220 nm. For purification, a column having a diameter of 2.2 cm was used, and a flow rate of 20 ml/min and the solvent and detection wavelength as described above were used. Only the biotin-labeled peptide fraction was collected, and concentrated using a rotary evaporator to remove the solvent, followed by freeze-drying.
The binding affinity of the titanium-binding peptide for titanium was measured by performing a binding assay using an avidin-biotin complex. Specifically, one titanium disc was placed in each well of a 24-well polystyrene plate, and then blocked with a blocking buffer (0.1 M NaHCO3 (pH 8.6), 5 mg/ml BSA, 0.02% NaN3 (optional), filter sterilize) for at least one hour. […] Each titanium disc was treated with 50 μl of 1% SDS solution to stop the reaction, and the absorbance at 405 nm was measured.

[2] = luminescent image analysis with enhanced chemiluminescence (ECL) solution; assay type: binding; details: ECL solution as substrate, FIG. 2
Experimental: Specifically, washing was performed at least three times with suitable washing solution to remove 2,2′-AZINO-BIS used as a substrate in the above procedure, and then analysis was performed with a luminescent image analyzer using enhanced chemiluminescence (ECL) solution.

[3] = test system: PDLSC cells; test: cell viability test (trypan blue count) on peptide-coated titanium discs; assay type: cell-based; details: for cytotoxicity for cells: administered alone, 3 days of incubation, FIG. 5; for Total cell number (viable cells), Average: average of #1 and #2; for Total cell number (viable cells), Average / Total cell number (viable cells), #1 / Total cell number (viable cells), #2: PDLSC, 3 days culture, disc coated per Table 2 (peptides 100 μM, BMP-2 100 ng/ml); for Total cell number (viable cells), #1: replicate #1; for Total cell number (viable cells), #2: replicate #2
Experimental: In order to evaluate whether or not a titanium binding peptide-linked osteogenic peptide (SEQ ID NO: 3 or SEQ ID NO: 4) and a titanium-binding peptide (SEQ ID NO: 1) are cytotoxic when these peptides are administered alone, a cell viability test was performed.
Specifically, one titanium disc was placed in each well of a 24-well low-attachment polystyrene plate and blocked with a blocking solution (0.1 M NaHCO3 (pH 8.6), 5 mg/ml BSA, 0.02% NaN3 (optional), filter sterilize) for at least 1 hour. Next, the blocking solution was discarded, and each well was washed three times or more with a washing solution (DPBS: Dulbeccos phosphate buffered saline), after which 50 μl of the solution shown in Table 2 below was dispensed and coated on the surface of each titanium disc. Each well was incubated at room temperature for 15 hours, and then washed three times or more with a washing solution (DPBS). Next, 3×10^4 PDLSC cells suspended in 50 μl of a medium (Minimum Essential Medium Eagle Alpha Modifications, Hyclone, USA) containing 10% FBS (Fetal Bovine Serum) and 1% antibiotic-antimycotic solution (Thermo Fisher Scientific, USA) were dispensed per titanium disc. […] Next, the cells were detached, stained with trypan blue, and counted with a hematocytometer to determine the number of viable cells.

[4] = maximum binding amount of titanium-binding peptide, avidin-biotin binding assay
Experimental: To examine the maximum binding amount of the titanium-binding peptide TBP (SEQ ID NO: 1) per unit area of the titanium disc surface, a binding assay using an avidin-biotin complex was performed. Specifically, one titanium disc was placed in each well of a 24-well polystyrene plate, and then blocked with a blocking buffer (0.1 M NaHCO3 (pH 8.6), 5 mg/ml BSA, 0.02% NaN3 (optional), filter sterilize) for at least one hour. Next, the blocking buffer was discarded, and each titanium disc was strongly washed six times or more with a washing buffer (TBS+0.1% [v/v] Tween-20), after which 50 μl of each of the titanium-binding peptide TBP (SEQ ID NO: 1) of Example 1 and the peptides TBP-C(SEQ ID NO: 2) and ZBP (SEQ ID NO: 5, Korean Patent Application No. 10-2015-0048441) of Comparative Examples 1 and 2, which were biotin-labeled, synthesized, separated and purified in Example 3-1, was dispensed to the surface of each titanium disc at a concentration ranging from 100 nM to 40 mM. Each titanium disc was incubated at room temperature for 15 hours, and then washed strongly with a washing buffer, and 50 μl of a 1:500 dilution of ExtrAvidin-peroxidase (Cat. #E2886, Sigma-Aldrich, USA) in a blocking buffer was dispensed to the surface of each titanium disc. Each titanium disc was incubated at room temperature for 1 hour, and then washed strongly with a washing buffer, after which 50 μl of a substrate solution (2,2′-AZINO-BIS, Cat. #A3219, Sigma-Aldrich, USA) was dispensed to the surface of each titanium disc and allowed to react at room temperature for 20 minutes so as to develop color. Each titanium disc was treated with 50 μl of 1% SDS solution to stop the reaction, and the absorbance at 405 nm was measured.

[5] = test system: periodontal ligament stem cells (PDLSCs); test: mineralization of periodontal ligament stem cells (Alizarin red S) on coated titanium discs; assay type: cell-based; details: day 18; significant p<0.05, not significant p>0.05
Experimental: Specifically, one titanium disc was placed in each well of a 24-well low-attachment polystyrene plate and blocked with a blocking solution (0.1 M NaHCO3 (pH 8.6), 5 mg/ml BSA, 0.02% NaN3 (optional), filter sterilize) for at least 1 hour. […] Each well was incubated at room temperature for 15 hours, and then washed three times or more with a washing solution (DPBS). Next, 3×10^4 PDLSC cells suspended in 50 μl of a medium (Minimum Essential Medium Eagle Alpha Modifications, Hyclone, USA) containing 10% FBS (Fetal Bovine Serum) and 1% antibiotic-antimycotic solution (Thermo Fisher Scientific, USA) were dispensed per titanium disc.

binding to titanium disc detected by luminescent image analyzer [2] | concentration showing the maximum absorbance value ([4]; 100 nM to 40 mM tested, absorbance at 405 nm, FIGS. 3 and 4) [µM] | maximum amount of titanium-binding peptide bound to the surface of one titanium disc ([4]; back-calculation from molecular weight and dispensing amount, disc diameter 10 mm) [µg] | amount of titanium-binding peptide fixed per mm^2 of the titanium disc surface ([4]; disc diameter 10 mm) | Molecule | binding to the titanium disc surface (absorbance at 405 nm) [1] | cytotoxicity for cells [3] | Total cell number (viable cells), Average [3] | Total cell number (viable cells), #1 [3] | Total cell number (viable cells), #2 [3] | mineralization (absorbance at 570 nm), difference versus NT (negative control) group [5]
– | – | – | – | SLNYTGHRPVVHGLRSKSKKFRRPDIQYPDA-NH2 [TBP-osteogenic peptide] | – | not cytotoxic | 7.8 × 10^4 | 7.5 × 10^4 | 8.0 × 10^4 | –
– | – | – | – | GLRSKSKKFRRPDIQYPDA-NH2 [Osteogenic peptide, reference compound] | – | – | 7.0 × 10^4 | 7.5 × 10^4 | 6.5 × 10^4 | –
– | – | – | – | CC[C@H](C)[C@H](NC(=O)[C@H](CC(=O)O)NC(=O)[C@@H]1CCCN1C(=O)[C@H](CCCNC(=N)N)NC(=O)[C@H](CCCNC(=N)N)NC(=O)[C@H](Cc1ccccc1)NC(=O)[C@H](CCCCN)NC(=O)[C@H](CCCCN)NC(=O)[C@H](CO)NC(=O)[C@H](CCCCN)NC(=O)[C@H](CO)NC(=O)[C@H](CCCNC(=N)N)NC(=O)[C@H](CC(C)C)NC(=O)CNC(=O)CCCCCNC(=O)[C@H](Cc1c[nH]cn1)NC(=O)[C@@H](NC(=O)[C@@H](NC(=O)[C@@H]1CCCN1C(=O)[C@H](CCCNC(=N)N)NC(=O)[C@H](Cc1c[nH]cn1)NC(=O)CNC(=O)[C@@H](NC(=O)[C@H](Cc1ccc(O)cc1)NC(=O)[C@H](CC(N)=O)NC(=O)[C@H](CC(C)C)NC(=O)[C@@H](N)CO)[C@@H](C)O)C(C)C)C(C)C)C(=O)N[C@@H](CCC(N)=O)C(=O)N[C@@H](Cc1ccc(O)cc1)C(=O)N1CCC[C@H]1C(=O)N[C@@H](CC(=O)O)C(=O)N[C@@H](C)C(N)=O [TBP-Linker-osteogenic peptide] (H-SLNYTGHRPVVH[Ahx]GLRSKSKKFRRPDIQYPDA-NH2) | – | not cytotoxic | 6.8 × 10^4 | 6.0 × 10^4 | 7.5 × 10^4 | –
binds to a titanium disc | 100 | 8.025 | about 0.1022 μg per mm^2 | SLNYTGHRPVVH-NH2 [TBP] | binds to the titanium disc surface in a concentration-dependent manner | not cytotoxic | 7.0 × 10^4 | 7.0 × 10^4 | 7.0 × 10^4 | no statistically significant difference
hardly bind to a titanium disc | – | – | – | VSPFGTKWSPFV (Zirconia Binding Peptide) [ZBP] | do not bind to the titanium disc surface | – | – | – | – | –

Molecule | binding to titanium disc detected by luminescent image analyzer [2] | concentration showing the maximum absorbance value ([4]; 100 nM to 40 mM tested, absorbance at 405 nm, FIGS. 3 and 4) [µM] | maximum amount of titanium-binding peptide bound to the surface of one titanium disc ([4]; back-calculation from molecular weight and dispensing amount, disc diameter 10 mm) [µg] | amount of titanium-binding peptide fixed per mm^2 of the titanium disc surface ([4]; disc diameter 10 mm) | binding to the titanium disc surface (absorbance at 405 nm) [1] | cytotoxicity for cells [3] | Total cell number (viable cells), Average [3] | Total cell number (viable cells), #1 [3] | Total cell number (viable cells), #2 [3] | mineralization (absorbance at 570 nm), difference versus NT (negative control) group [5]
SLNATGARAVVA [TBP-C] | hardly bind to a titanium disc | – | – | – | do not bind to the titanium disc surface | – | – | – | – | –
